Data as given in EP4316461A1, “A PRESERVATIVE COMPOSITION” (BRAIN Biotech AG, priority 2022, dated 2024).
Values after ≈ are worked out from the molar mass of the structure shown.

Columns and labels:
Type in all cases: cell-based
[1] = system: Alicyclobacillus acidoterrestris; test: Antimicrobial activity (MIC); details: Alicyclobacillus acidoterrestris, DSM2498; Strain ID DSM 2498; potato dextrose broth pH 3.8; read-out: Minimal Inhibitory Concentration (MIC)
Alternaria alternata = test: Antimicrobial activity (MIC); details: Alternaria alternata, DSM12633; Strain ID DSM 12633; potato dextrose broth pH 3.8; read-out: Minimal Inhibitory Concentration (MIC)
Aspergillus brasiliensis = test: Antimicrobial activity (MIC); details: Aspergillus brasiliensis, DSM1988; Strain ID DSM 1988; potato dextrose broth pH 3.8; read-out: Minimal Inhibitory Concentration (MIC)
Bacillus cereus = test: Antimicrobial activity (MIC); details: Bacillus cereus; Strain ID DSM4490; potato dextrose broth pH 3.8; read-out: Minimal Inhibitory Concentration (MIC)
Botrytis cinerea = test: Antimicrobial activity (MIC); details: Botrytis cinerea, DSM5145; Strain ID DSM 5145; potato dextrose broth pH 3.8; read-out: Minimal Inhibitory Concentration (MIC)
Campylobacter jejuni = test: Antimicrobial activity (MIC); details: Campylobacter jejuni, DSM4688; Strain ID DSM 4688; potato dextrose broth pH 3.8; read-out: Minimal Inhibitory Concentration (MIC)
Candida albicans = test: Antimicrobial activity (MIC); details: Candida albicans; Strain ID ATCC10231; potato dextrose broth pH 3.8; read-out: Minimal Inhibitory Concentration (MIC)
Candida parapsilosis = test: Antimicrobial activity (MIC); details: Lodderomyces parapsilosis, ATCC20384; Strain ID ATCC 20384; potato dextrose broth pH 3.8; read-out: Minimal Inhibitory Concentration (MIC)
[2] = system: Cladosporium cladosporioides; test: Antimicrobial activity (MIC); details: Cladosporium cladosporioides; Strain ID DSM19653; potato dextrose broth pH 3.8; read-out: Minimal Inhibitory Concentration (MIC)
Clostridium perfringens = test: microbe, parasite or virus in culture; details: Clostridium perfringens, DSM756, pH 3.8, read-out: Minimal Inhibitory Concentration (MIC)
Enterobacter cloacae = test: Antimicrobial activity (MIC); details: Enterobacter cloacae, DSM6234; Strain ID DSM 6234; potato dextrose broth pH 3.8; read-out: Minimal Inhibitory Concentration (MIC)
Enterococcus faecalis = test: Antimicrobial activity (MIC); details: Enterococcus faecalis, ATCC7080; Strain ID ATCC 7080; potato dextrose broth pH 3.8; read-out: Minimal Inhibitory Concentration (MIC)
[3] = system: Fusobacterium nucleatum subsp. vincentii; test: Antimicrobial activity (MIC); details: Fusobacterium nucleatum, DSM19507; Strain ID DSM 19507; potato dextrose broth pH 3.8; read-out: Minimal Inhibitory Concentration (MIC)
[4] = system: Gluconacetobacter liquefaciens; test: Antimicrobial activity (MIC); details: Gluconacetobacter liquefaciens, DSM5603; Strain ID DSM 5603; potato dextrose broth pH 3.8; read-out: Minimal Inhibitory Concentration (MIC)
[5] = system: Lactobacillus paracasei ssp. paracasei; test: Antimicrobial activity (MIC); details: Lacticaseibacillus paracasei, DSM46331; Strain ID DSM 46331; potato dextrose broth pH 3.8; read-out: Minimal Inhibitory Concentration (MIC)
[6] = system: Lactobacillus plantarum ssp. plantarum; test: Antimicrobial activity (MIC); details: Lactiplantibacillus plantarum, DSM20174; Strain ID DSM 20174; potato dextrose broth pH 3.8; read-out: Minimal Inhibitory Concentration (MIC)
Leuconostoc lactis = test: Antimicrobial activity (MIC); details: Leuconostoc lactis, DSM20202; Strain ID DSM 20202; potato dextrose broth pH 3.8; read-out: Minimal Inhibitory Concentration (MIC)
[7] = system: Pasteurella multocida ssp. multocida; test: Antimicrobial activity (MIC); details: Pasteurella multocida, DSM16031; Strain ID DSM 16031; potato dextrose broth pH 3.8; read-out: Minimal Inhibitory Concentration (MIC)
Penicillium expansum = test: Antimicrobial activity (MIC); details: Penicillium expansum, DSM62841; Strain ID DSM 62841; potato dextrose broth pH 3.8; read-out: Minimal Inhibitory Concentration (MIC)
Pseudomonas fluorescens = test: Antimicrobial activity (MIC); details: Pseudomonas fluorescens; Strain ID DSM50337; potato dextrose broth pH 3.8; read-out: Minimal Inhibitory Concentration (MIC)
Saccharomyces cerevisiae = test: Antimicrobial activity (MIC); details: Saccharomyces cerevisiae, DSM2548; Strain ID DSM 2548; potato dextrose broth pH 3.8; read-out: Minimal Inhibitory Concentration (MIC)
[8] = system: Salmonella enterica ssp. enterica Ser. typhimurium; test: Antimicrobial activity (MIC); details: Salmonella enterica, DSM 17058 / TYPHIMURIUM; Strain ID DSM 17058; potato dextrose broth pH 3.8; read-out: Minimal Inhibitory Concentration (MIC)
Staphylococcus aureus = test: Antimicrobial activity (MIC); details: Staphylococcus aureus, DSM2569; Strain ID DSM 2569; potato dextrose broth pH 3.8; read-out: Minimal Inhibitory Concentration (MIC)
Streptococcus mutans = test: Antimicrobial activity (MIC); details: Streptococcus mutans, DSM20523; Strain ID DSM 20523; potato dextrose broth pH 3.8; read-out: Minimal Inhibitory Concentration (MIC)
Yarrowia lipolytica = test: Antimicrobial activity (MIC); details: Yarrowia lipolytica, DSM70561; Strain ID DSM 70561; potato dextrose broth pH 3.8; read-out: Minimal Inhibitory Concentration (MIC)
Zygosaccharomyces bailii = test: Antimicrobial activity (MIC); details: Zygosaccharomyces bailii, DSM70834; Strain ID DSM 70834; potato dextrose broth pH 3.8; read-out: Minimal Inhibitory Concentration (MIC)
Zygosaccharomyces rouxii = test: Antimicrobial activity (MIC); details: Zygosaccharomyces rouxii, DSM7525; Strain ID DSM 7525; potato dextrose broth pH 3.8; read-out: Minimal Inhibitory Concentration (MIC)

## C[C@@H]1O[C@@H](O[C@H]2[C@H](O[C@H]3CC[C@@]4(C)[C@@H](CC[C@]5(C)[C@@H]4CC=C4[C@@H]6CC(C)(C)CC[C@]6(C(=O)O)CC[C@]45C)[C@]3(C)CO)OC[C@H](O)[C@@H]2O)[C@H](O)[C@H](O[C@@H]2OC[C@@H](O)[C@H](O)[C@H]2O)[C@H]1O [A, Sapindoside B [30994-75-3]]
[1]
  MIC: 40 µg/mL (≈ 45.3 µM)
Alternaria alternata
  MIC: > 80 µg/mL
Aspergillus brasiliensis
  MIC: > 80 µg/mL
Bacillus cereus
  MIC: > 80 µg/mL
Botrytis cinerea
  MIC: > 80 µg/mL
Campylobacter jejuni
  MIC: > 80 µg/mL
Candida albicans
  MIC: > 80 µg/mL
Candida parapsilosis
  MIC: > 80 µg/mL
[2]
  MIC: > 80 µg/mL
Clostridium perfringens
  MIC: > 80 µg/mL
Enterobacter cloacae
  MIC: > 80 µg/mL
Enterococcus faecalis
  MIC: > 80 µg/mL
[3]
  MIC: 80 µg/mL (≈ 90.6 µM)
[4]
  MIC: 140 µg/mL (≈ 159 µM)
[5]
  MIC: > 80 µg/mL
[6]
  MIC: 40 µg/mL (≈ 45.3 µM)
Leuconostoc lactis
  MIC: 80 µg/mL (≈ 90.6 µM)
[7]
  MIC: > 80 µg/mL
Penicillium expansum
  MIC: > 500 µg/mL
Pseudomonas fluorescens
  MIC: > 80 µg/mL
Saccharomyces cerevisiae
  MIC: > 80 µg/mL
[8]
  MIC: > 80 µg/mL
Staphylococcus aureus
  MIC: > 80 µg/mL
Streptococcus mutans
  MIC: > 80 µg/mL
Yarrowia lipolytica
  MIC: > 80 µg/mL
Zygosaccharomyces bailii
  MIC: > 80 µg/mL
Zygosaccharomyces rouxii
  MIC: 500 µg/mL (≈ 566 µM)
